Measurements reported in the supplement of paper PMC10307832.

Columns and labels:
Assay in all cases: relative viability (nuclei count vs DMSO), 5 days (fraction); higher = more cells survive
[1] = compound: C1/C(=C\C2=CC=CS2)/C(=O)/C(=C/C3=CC=CS3)/C1 + CS(=O)(=O)N1CCN(Cc2cc3nc(-c4cccc5[nH]ncc45)nc(N4CCOCC4)c3s2)CC1 [Pictilisib] (partner 1 µM)
Summary of the method: (§1)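 Relative viability is defined as nuclei in treated wells over nuclei in vehicle wells. Duplicate plates were run and medians reported. Lung cancer cell lines in 1536-well plates were dosed by pin tool one day after seeding, with one drug or with a fixed anchor-drug dose plus five library-drug doses (not always all listed) in √10 steps, and nuclei were counted after 5 days.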

TPCA-1 + Pictilisib = compound: C1=CC(=CC=C1C2=CC(=C(S2)NC(=O)N)C(=O)N)F [TPCA-1] + CS(=O)(=O)N1CCN(Cc2cc3nc(-c4cccc5[nH]ncc45)nc(N4CCOCC4)c3s2)CC1 [Pictilisib] (partner 1 µM)
Summary of the method: as §1

[2] = compound: C[C@]12O[C@H](C[C@]1(O)CO)n1c3ccccc3c3c4c(c5c6ccccc6n2c5c31)CNC4=O [Lestaurtinib] + CS(=O)(=O)N1CCN(Cc2cc3nc(-c4cccc5[nH]ncc45)nc(N4CCOCC4)c3s2)CC1 [Pictilisib] (partner 1 µM)
Summary of the method: as §1

[3] = compound: C1/C(=C\C2=CC=CS2)/C(=O)/C(=C/C3=CC=CS3)/C1 + Nc1ncn([C@H]2C[C@H](O)[C@@H](CO)O2)c(=O)n1 [Decitabine] (partner 2 µM)
Summary of the method: as §1

Cell Line	relative viability ([1]; first compound 0.2 µM)	relative viability ([1]; first compound 0.6325 µM)	relative viability ([1]; first compound 2 µM)	relative viability ([1]; first compound 6.325 µM)	relative viability ([1]; first compound 20 µM)	relative viability (TPCA-1 + Pictilisib; first compound 0.04 µM)	relative viability (TPCA-1 + Pictilisib; first compound 0.1265 µM)	relative viability (TPCA-1 + Pictilisib; first compound 0.4 µM)	relative viability (TPCA-1 + Pictilisib; first compound 1.265 µM)	relative viability (TPCA-1 + Pictilisib; first compound 4 µM)	relative viability ([2]; first compound 0.005 µM)	relative viability ([2]; first compound 0.01581 µM)	relative viability ([2]; first compound 0.05 µM)	relative viability ([2]; first compound 0.1581 µM)	relative viability ([2]; first compound 0.5 µM)	relative viability ([3]; first compound 0.2 µM)	relative viability ([3]; first compound 0.6325 µM)	relative viability ([3]; first compound 2 µM)	relative viability ([3]; first compound 6.325 µM)	relative viability ([3]; first compound 20 µM)
NCI-H2170	0.334	0.341	0.31	0.278	0.313	0.373	0.27	0.32	0.32	0.209	0.285	0.257	0.304	0.293	0.223	0.439	0.436	0.466	0.466	0.479
HCC-366	0.132	0.137	0.204	0.191	0.0995	0.182	0.13	0.177	0.117	0.124	0.159	0.178	0.192	0.101	0.0482	0.296	0.329	0.341	0.369	0.336
NCI-H2347	0.652	0.63	0.928	0.889	0.446	0.588	0.568	0.901	0.806	0.31	0.692	0.996	0.485	0.472	0.532	0.689	0.581	0.628	0.57	0.633
COR-L 105	0.409	0.364	0.386	0.327	0.356	0.475	0.364	0.463	0.306	0.248	0.488	0.405	0.288	0.263	0.212	0.526	0.668	0.699	0.444	0.7
201T	0.695	0.688	0.697	0.607	0.664	0.733	0.66	0.687	0.663	0.632	0.677	0.691	0.64	0.601	0.533	0.862	0.87	0.826	0.843	0.811
NCI-H2126	0.511	0.477	0.505	0.485	0.488	0.507	0.435	0.506	0.505	0.309	0.493	0.525	0.415	0.449	0.411	0.564	0.624	0.547	0.582	0.587
LC-2-ad	0.464	0.525	0.482	0.51	0.425	0.644	0.376	0.488	0.322	0.0862	0.369	0.333	0.204	0.167	0.113	0.861	0.823	0.797	0.666	0.748
NCI-H2085	0.449	0.487	0.534	0.405	0.432	0.504	0.385	0.52	0.331	0.418	0.482	0.474	0.465	0.476	0.49	0.56	0.544	0.597	0.498	0.508
NCI-H358	0.37	0.312	0.412	0.182	0.453	0.309	0.272	0.349	0.335	0.236	0.346	0.28	0.28	0.221	0.181	0.217	0.207	0.212	0.203	0.192
H3255	0.545	0.452	0.467	0.405	0.506	0.461	0.404	0.509	0.399	0.333	0.5	0.393	0.388	0.277	0.164	0.81	0.538	0.527	0.55	0.494
NCI-H2228	0.337	0.362	0.479	0.295	0.287	0.379	0.358	0.402	0.454	0.186	0.461	0.551	0.332	0.325	0.198					
CAL-12T	0.381	0.464	0.578	0.352	0.377	0.283	0.438	0.507	0.224	0.162	0.392	0.716	0.388	0.413	0.292					
A-427	0.761	0.82	0.923	0.706	0.733	0.756	0.591	0.687	0.626	0.164	0.769	0.668	0.461	0.239	0.101	0.592	0.586	0.586	0.519	0.583
HARA	0.452	0.448	0.508	0.504	0.445	0.591	0.4	0.433	0.393	0.331	0.356	0.451	0.334	0.187	0.179	0.755	0.571	0.558	0.529	0.595
NCI-H1793	0.409	0.202	0.291	0.31	0.352	0.292	0.381	0.454	0.245	0.28	0.319	0.224	0.235	0.34	0.263	0.526	0.554	0.614	0.305	0.469
NCI-H2009	0.911	0.959	0.833	0.691	0.846	0.974	0.741	0.896	0.272	0.318	0.795	0.691	0.43	0.54	0.149	0.356	0.381	0.359		0.347

Cell Line	relative viability ([1]; first compound 0.2 µM)	relative viability ([1]; first compound 0.6325 µM)	relative viability ([1]; first compound 2 µM)	relative viability ([1]; first compound 6.325 µM)	relative viability ([1]; first compound 20 µM)	relative viability (TPCA-1 + Pictilisib; first compound 0.04 µM)	relative viability (TPCA-1 + Pictilisib; first compound 0.1265 µM)	relative viability (TPCA-1 + Pictilisib; first compound 0.4 µM)	relative viability (TPCA-1 + Pictilisib; first compound 1.265 µM)	relative viability (TPCA-1 + Pictilisib; first compound 4 µM)	relative viability ([2]; first compound 0.005 µM)	relative viability ([2]; first compound 0.01581 µM)	relative viability ([2]; first compound 0.05 µM)	relative viability ([2]; first compound 0.1581 µM)	relative viability ([2]; first compound 0.5 µM)	relative viability ([3]; first compound 0.2 µM)	relative viability ([3]; first compound 0.6325 µM)	relative viability ([3]; first compound 2 µM)	relative viability ([3]; first compound 6.325 µM)	relative viability ([3]; first compound 20 µM)
ABC-1	0.896	0.64	0.882	0.631	0.658	0.82	0.479	0.672	0.429	0.524	0.676	0.747	0.4	0.596	0.226	1.22	1	1.2	0.87	0.972
IA-LM	0.396	0.399	0.31	0.369	0.359	0.319	0.339	0.417	0.376	0.404	0.547	0.691	0.725	0.642	0.198					
NCI-H322M	0.541	0.526	0.654	0.538	0.522	0.587	0.494	0.529	0.532	0.464	0.493	0.5	0.445	0.443	0.401	0.654	0.63	0.743	0.654	0.678
NCI-H1792	0.257	0.314	0.298		0.247	0.343	0.318	0.252	0.264	0.177	0.316	0.302	0.243	0.141	0.129	0.642	0.519	0.561	0.495	0.496
LXF-289	0.814	0.772	0.821	0.699	0.797	0.836	0.698	0.797	0.735	0.499	0.715	0.756	0.475	0.523	0.247	0.371	0.386	0.355	0.373	0.344
HCC-827	1.12	1	1.1	0.933	1.01	1.21	0.868	1.04	0.81	0.744	1.13	0.8	0.896	0.833	0.388	0.316	0.38	0.377	0.28	0.308
SW 900																0.404	0.434	0.375	0.42	0.438
NCI-H1299	0.79	0.863	0.806	0.758	0.799	0.854	0.669	0.828	0.614	0.243	0.558	0.502	0.222	0.305	0.133					
NCI-H1563	0.753	0.678	0.634	0.662	0.636	0.671	0.633	0.63	0.661	0.611	0.635	0.709	0.618	0.638	0.536					
Calu-6	1.04	1.05	0.955	0.885	0.82	0.954	0.841	0.946	0.785	0.469	0.875	0.751	0.357	0.308	0.142					
NCI-H1703	0.278	0.247	0.259	0.227	0.248	0.263	0.284	0.259		0.213	0.254	0.217	0.201	0.173	0.132					
EBC-1	0.417	0.39	0.383	0.391	0.457	0.462	0.421	0.466	0.474	0.362	0.427	0.402	0.35	0.452	0.21					
NCI-H2342																0.819	0.73	0.713	0.752	0.653
NCI-H1648																0.489	0.478	0.603	0.45	0.432
NCI-H522																0.738	0.753	0.722	0.673	0.604
